Holding throughout (format): cell-based
Assay [1] has as its system S. mutans, S. sanguis, S. aureus, C. albicans, Methicillin resistant S. aureus, P. acnes. The experiment in a line: Effective kill times of antimicrobial solutions. To be noted: loperamide in 2.5% dimethyl sulphoxide; sampled at 30 seconds, 1, 2 and 5 minutes; data only in FIGS. 1-6. As to the method:
A suitable broth culture of the test organism was prepared (see Table 3 below). Cultures were diluted (1:10) using a Ringer and Peptone solution. 30 ml volumes of loperamide made up in 2.5% dimethyl sulphoxide were prepared. The samples were then inoculated with 30 ml of the initial microorganism suspension, and at time intervals of 30 seconds, 1, 2 and 5 minutes, 1 ml of the sample was removed and added to 9 ml of Dey-Engley neutralizing broth. Two further serial dilutions were then prepared.
0.1 ml from the Dey-Engley broths and subsequent dilutions were spread plated and then incubated. See Table 3 below for the appropriate agar and incubation conditions.

In assay [2] the test system is Pseudomonas stutzeri NCTC 10475. The experiment in a line: Nominal Inhibitory Concentration (spiral plater). The note with it: 24 hrs BA 37° C. Here is the method: (§1) A broth, appropriate to the microorganism to be tested (see Table 1 below), was inoculated aseptically from a pure plate culture and then incubated as indicated in Table 1.
(§2) Following the correct incubation, the liquid culture was diluted in a sterile saline solution to give approximately 10^5 to 10^6 CFU/ml. The suspension was serially diluted and spread plates were prepared for each dilution so as to obtain an accurate CFU/ml value.
(§3) The spiral plater was prepared by passing one cupule of IMS followed by one cupule of sterile water through the plater with the valve open and vacuum pump on. With the spiral plater cam on “Linear Deposition”, the suspension of micoorganism to be tested was placed in a new cupule. The suspension was taken up, ensuring that the glass tube was full, and the organisms were then deposited in an even spiral onto agar plates.
(§4) The depth of the agar was measured on the plates and this value recorded. Negative control plates with no added active were produced in triplicate.
(§5) The spiral plater was washed with one cupule of IMS and one cupule of sterile deionised water in-between the inoculation of different microbial samples. Once the microbial inocula had dried, the spiral plater was washed and the cam changed to “Gradient Deposition”. The antimicrobial solution was deposited in a spiral gradient directly on top of the dried inoculated spiral. Loperamide hydrochloride was used at concentrations of 1% and 0.3% made up in 50% dimethyl sulphoxide.
(§6) The spiral plater was washed with one cupule of IMS and one of sterile deionised water in-between different antimicrobial solutions. The solutions were left to dry before being incubated, at 37° C. for 24 hr, +/−6 hr or 48 hr +/−6 hr for anaerobes (see Table 1).
(§7) Following incubation, the control plates were checked to have grown to the end of the spiral inoculum. Digital calipers were used to measure the distance between the inoculation point and the point where confluent growth starts. The distance value termed the Radial Advance was used to determine the Deposition Factor (DF). The NIC can be calculated from the following formula:
(§8) NIC=Nominal Inhibitory Concentration (e.g. ppm)
(§9) SC=Stock concentration of antimicrobial (e.g. ppm)
(§10) ha=height of agar in plate (mm)

For assay [3], the system named is Staphylococcus epidermidis ATCC 8853. In words: Nominal Inhibitory Concentration (spiral plater). To be noted: 24 hrs TSA 37° C. As to the method: as §1, §2, §3, §4, §5, §6, §7, §8, §9, §10
Assay [4] has as its system Propionibacterium acnes NCTC 737. The experiment in a line: Nominal Inhibitory Concentration (spiral plater). To be noted: 48 hrs BA 37° C. anaerobically, loperamide hydrochloride 1% and 0.3% in 50% dimethyl sulphoxide. Here is the method: as §1, §2, §3, §4, §5, §6, §7, §8, §9, §10
For assay [5], the system named is Candida albicans NCYC 1363. The experiment in a line: Nominal Inhibitory Concentration (spiral plater). The note with it: 24 hrs SDA 37° C. As to the method: as §1, §2, §3, §4, §5, §6, §7, §8, §9, §10
Assay [6] concerns Pseudomonas cepacia ATCC 25416. The experiment in a line: Nominal Inhibitory Concentration (spiral plater). To be noted: 24 hrs BA 37° C. As to the method:
as §1, §2, §3, §4, §5, §6, §7, §8, §9, §10

Assay [7] has as its system Lactobacillus acidophillus NCTC 4505. In words: Nominal Inhibitory Concentration (spiral plater). To be noted: 24 hrs BA 37° C. As to the method: as §1, §2, §3, §4, §5, §6, §7, §8, §9, §10
Assay [8] concerns Bacillus subtilis ATCC 6633. In words: Nominal Inhibitory Concentration (spiral plater). To be noted: 24 hrs BA 37° C. As to the method:
as §1, §2, §3, §4, §5, §6, §7, §8, §9, §10

Assay [9] relates to Staphylococcus aureus ATCC 6538. In words: Nominal Inhibitory Concentration (spiral plater). The note with it: 24 hrs TSA 37° C. As to the method: as §1, §2, §3, §4, §5, §6, §7, §8, §9, §10
Assay [10] deals with Micrococcus luteus NCIB 8166. The experiment in a line: Nominal Inhibitory Concentration (spiral plater). The note with it: 24 hrs BA 37° C. As to the method:
as §1, §2, §3, §4, §5, §6, §7, §8, §9, §10

The subject of assay [11] is Streptococcus oralis NCTC 11427. In words: Nominal Inhibitory Concentration (spiral plater). To be noted: 24 hrs BA 37° C. As to the method: as §1, §2, §3, §4, §5, §6, §7, §8, §9, §10
The test system of assay [12] is Pseudomonas aeruginosa ATCC 9027. The experiment in a line: Nominal Inhibitory Concentration (spiral plater). The note with it: 24 hrs BA 37° C. As to the method: as §1, §2, §3, §4, §5, §6, §7, §8, §9, §10
Assay [13] deals with Streptococcus sanguis NCTC 10904. The experiment in a line: Nominal Inhibitory Concentration (spiral plater). To be noted: 24 hrs BA 37° C. Here is the method: as §1, §2, §3, §4, §5, §6, §7, §8, §9, §10
The subject of assay [14] is Streptococcus mutans NCTC 11061. In words: Nominal Inhibitory Concentration (spiral plater). The note with it: 24 hrs BA 37° C. As to the method:
as §1, §2, §3, §4, §5, §6, §7, §8, §9, §10

For assay [15], the system named is Escherichia coli NCTC 8545. In words: Nominal Inhibitory Concentration (spiral plater). To be noted: 24 hrs BA 37° C. As to the method:
as §1, §2, §3, §4, §5, §6, §7, §8, §9, §10

Assay [16] relates to Sphingomonas paucimobilis NCTC 11030. The experiment in a line: Nominal Inhibitory Concentration (spiral plater). To be noted: 24 hrs BA 37° C. As to the method: as §1, §2, §3, §4, §5, §6, §7, §8, §9, §10
The test system of assay [17] is Fusobacterium nucleatum NCTC 10562. The experiment in a line: Nominal Inhibitory Concentration (spiral plater). To be noted: 48 hrs BA 37° C. (anaerobically). Here is the method: as §1, §2, §3, §4, §5, §6, §7, §8, §9, §10

For `CN(C)C(=O)C(CCN1CCC(O)(c2ccc(Cl)cc2)CC1)(c1ccccc1)c1ccccc1` [Loperamide, 4-(p-chlorophenyl)-4-hydroxy-N,N-dimethyl-α,α-diphenyl-1-piperidinebutyramide], the “bactericidal properties (kill time)” value in assay [1] was “good bactericidal properties”. The NIC was determined as 21 ppm in assay [2]; 33 ppm in assay [3]; 16 ppm in assay [4]; 39 ppm in assay [5]; 36 ppm in assay [6]; 18 ppm in assay [7]. Besides, the NIC was 9 ppm in assay [8]; 34 ppm in [9]; 9 ppm in [10]; 24 ppm in [11]; more than 165 ppm in assay [12]; 27 ppm in assay [13]. For the same molecule, the NIC in assay [14] is 30 ppm; in [15] it was more than 165 ppm; in assay [16], 11 ppm; in [17] it was 7 ppm.

The record behind these values is US6566374B1, “Method of treating or preventing microbial infections with loperamide” (priority 1998, dated 2003).
